Assay results as given in publication PMC6910946, “Multiple roles of Bet v 1 ligands in allergen stabilization and modulation of endosomal protease activity” (Allergy, 2019).

Key:
Bet_v_1 = target: T1, Bet_v_1 (Betula pendula, UniProt P15494); assay: Thermal stability of Bet v 1 by FTIR spectroscopy; type: physicochemical, Betula verrucosa; details: for ΔFTIR: change of Tm of Bet v 1 versus no ligand; for T m FTIR: melting point of Bet v 1 with or without ligand
T1 construct: made in house
T1 sequence (P15494 1-160): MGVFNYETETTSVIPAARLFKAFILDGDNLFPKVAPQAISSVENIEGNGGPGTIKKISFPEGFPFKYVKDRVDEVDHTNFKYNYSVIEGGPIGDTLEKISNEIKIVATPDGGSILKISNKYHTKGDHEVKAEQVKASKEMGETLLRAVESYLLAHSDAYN
Source text: Surface acoustic wave (SAW) technology and NMR spectroscopy were used to observe the interaction of Bet_v_1 with the selected compounds, including determination of the dissociation constant (K d). The influence of ligand binding on the secondary structure elements and the thermal stability of Bet_v_1 was monitored using circular dichroism (CD, JASCO J‐815 spectropolarimeter, Jasco) and Fourier transform infrared (FTIR) spectroscopy (Tensor II FTIR system, Bruker Optics Inc). A detailed description of these methods is available (Appendix [Link], [Link]). […]
Determination of secondary structure elements and thermal stability
The influence of ligand binding on the secondary structure elements and the thermal stability of Bet v 1 was addressed by circular dichroism (CD) and Fourier transform infrared (FTIR) spectroscopy. CD spectroscopy was performed with a JASCO J-815 spectropolarimeter fitted with a PTC-423S Peltier-type single position cell holder (Jasco, Tokyo, Japan) over the wavelength range 190 to 260 nm. For measurement, Bet v 1 with and without ligand was diluted in a 10 mM potassium phosphate buffer to a concentration of 0.1 mg/ml. The thermal stability analysis was recorded at 222 nm. The protein was denatured with a temperature slope of 1° C/min from 20 to 95° C.
FTIR amide 1 and amide 2 spectra of Bet v 1 at concentrations of 1.0-2.0 mg/ml with and without ligand were recorded with an AquaSpec transmission cell adapted to a Tensor II FTIR system (Bruker Optics Inc., Billerica, MA, USA). Measurement was performed at a constant temperature (25° C), controlled by a Haake F8 thermostat (Thermo Electron, Germany) with internal temperature control. For data analysis, OPUS spectroscopy software 6.0 (Bruker Optics Inc., Billerica, MA, USA) was used. The Savitzky-Golay algorithm was applied on […]
vector-normalized amide 1 spectra (25 smoothing points) to obtain the second derivative. For the quantification of secondary structure elements, a Quant2 method of the OPUS software was used. For thermal stability analysis, spectra were recorded with a BioATR II unit (Bruker Optics Inc., Billerica, MA, USA) at 25 to 95° C (dT=2.5K). The determined relative signal change in the amide I band by creating a difference spectrum for each temperature point was used to calculate the melting point (Tm). […]

[1] = system: human monocyte‐derived dendritic cells (moDCs); assay: Activation and cytokine secretion of human moDCs; type: cell-based; details: Bet v 1 in complex with ligand, 24 h, no LPS co-stimulation
Procedure: The ability of ligand‐loaded Bet_v_1 to induce IgE‐antigen cross‐linking and basophil degranulation was assessed by mediator‐release assays using rat basophil (RBL‐2H3) cells, transfected with the human high‐affinity IgE receptor (FcεRI), as previously described.2, 24 In vitro uptake of labeled Bet_v_1 was performed using CD11c^+ murine bone marrow–derived dendritic cells (BMDCs). The maturation of human monocyte‐derived dendritic cells (moDCs) was analyzed as previously described.2 T‐cell proliferation assays using CD4^+ T‐cell hybridomas were performed as previously described.17 A detailed description of the in vitro assays is available (Appendix [Link], [Link]).
Immature moDCs from PBMCs of either healthy/non-atopic donors (n=5) or atopic patients (n=7) were isolated and cultured as described elsewhere.^6 Cell viability using the Aqua® dye (Invitrogen, Carlsbad, CA, USA), expression of CD1a (eBioscience, Inc., San Diego, CA, USA) and loss of CD14 (BD Biosciences) expression were analyzed by flow cytometry on a Navios flow cytometer (Beckman Coulter, Brea, CA, USA). Cells (1x10^6 cells/ml) were stimulated for 24 hours with 1 µg/ml of Bet v 1 either alone or in complex with one of the three ligands (DOC, PPE1 or Q3OS). As a control, unstimulated moDCs and the individual ligands without Bet v 1 were used at the same concentrations. The cell supernatant was frozen for the analysis of cytokine secretion. Of note, no LPS co-stimulation was induced. The following maturation markers were investigated: CD40 (eBioscience), HLA-DR, CD80, CD83 and CD86 (BD Biosciences). Cytokine expression of CCL17, IL-1β, IL-10 (BD Biosciences), TNFα and IL-6 (eBioscience) was determined by ELISA. Statistical analysis was performed using one-way ANOVA with a Bonferroni post-test to compare all groups. The study was approved by the ethics committee of the medical faculty of Technical University of Munich (54/17 S).

[2] = target: T2, Bet_v_1 (endolysosomal proteases of microsomes) (Betula pendula, UniProt P15494); assay: In vitro simulation of endolysosomal degradation of Bet v 1 with microsomes; type: biochemical; details: for accumulation of N‐terminal cluster peptides during Bet v 1 processing / generation of the immunodominant T‐cell epitope (number of identified peptides): 12 h degradation; for proteolytic stability of Bet v 1 toward endolysosomal proteases: ligand in 10× molar excess, 0-48 h, densitometric analysis of SDS‐PAGE
T2 construct: made in house
T2 sequence (P15494 1-160): T1 sequence (P15494 1-160)
Procedure: The endolysosomal degradation assay was performed with ligand‐bound (either DOC, PPE1, or Q3OS in 10× molar excess) and Bet_v_1 without ligands (apo‐Bet_v_1) as previously described.21 Recombinant human cathepsin S and human legumain were used in proteolytic degradation assays. Experimental details are described in the Appendix [Link], [Link].
The endolysosomal degradation assay was performed with ligand-bound (either DOC, PPE1, or Q3OS in 10× molar excess) and Bet v 1 without ligands (apo-Bet v 1) as previously described.^7 The protein (5 µg) was incubated with 7 µg of microsomes in 100 mM citrate buffer pH 4.8 and 2 mM dithiothreitol (DTT) for 0, 0.5, 1, 3, 6, 12, 24, and 48 h at 37°C. The different digestion preparations were analyzed by SDS-PAGE and quantitatively interpreted using Image Lab 4.0.1 Software (Bio-Rad). The generated peptides obtained after 12 h of digestion were analyzed using mass spectrometry with a Q-Exactive Orbitrap Mass Spectrometer (Thermo Fisher Scientific, Waltham, MA, USA), nanoelectrospray, and nano-HPLC (Dionex Ultimate 3000, Thermo Fisher Scientific).
For data analysis, the web-based application MSTools was used.^8 For the semi-quantitative analysis of the abundance of the generated peptides at 12 hours of degradation, the obtained peptide sequences were clustered into 7 groups according to their amino acid sequence (cluster 1, GVF-NYE-TET-TSV-IPA-ARL-FKA-F; cluster 2, AIL-DGD-NLF-PKV-APQ-A; cluster 3, AIS-SVE-NIE-GNG-GPG-TIK-KIS-FPE-G; cluster 4, FPF-KYV-KDR-VDE-VDH-TNF-K; cluster 5, YNY-SVI-EGG-PIG-DTL-EKI-SNE-IKI-VAT-PDG-GSI-LK; cluster 6, ISN-KYH-TKG-DHE-VKA-EQV-KAS-KEM-GET-LLR; and cluster 7, RAV-ESY-LLA-HSD-AYN), and the total sum of peak areas of all sequences per cluster was calculated (in percentage).

[3] = 12 h incubation, mass spectrometry

SMILES | ΔFTIR (Bet_v_1) | T m FTIR (Bet_v_1) | maturation marker expression and Th polarization‐associated cytokines [1] | accumulation of N‐terminal cluster peptides during Bet v 1 processing [2] | generation of the immunodominant T‐cell epitope (number of identified peptides) [2] | Bet v 1 peptide diversity reduced to (versus apo form) [2, 3] | proteolytic stability of Bet v 1 toward endolysosomal proteases [2] | diversity of peptides versus apo form of Bet v 1 [2, 3]
C[C@H](CCC(=O)O)[C@H]1CC[C@H]2[C@@H]3CC[C@@H]4C[C@H](O)CC[C@]4(C)[C@H]3C[C@H](O)[C@]12C [DOC, sodium deoxycholate, reference compound] | +3.22 °C | 66.6 °C | None of the above described readouts was influenced | preferentially accumulated the two N‐terminal cluster peptides | more efficient generation of the immunodominant T‐cell epitope | 69.7% | enhanced proteolytic stability | –
CCC1C(=O)CC(O)C1/C=C/C(O)CCCCCCCC(=O)O (stereo not shown) [PPE1, E1 phytoprostanes] | +5.93 °C | 69.31 °C | None of the above described readouts was influenced | preferentially accumulated the two N‐terminal cluster peptides | – | 53.9% | enhanced proteolytic stability | –
O=c1c(O[C@@H]2O[C@H](CO)[C@@H](O)[C@H](O)[C@H]2O[C@@H]2O[C@H](CO)[C@@H](O)[C@H](O)[C@H]2O)c(-c2ccc(O)c(O)c2)oc2cc(O)cc(O)c12 [Q3OS, quercetin 3‐O‐sophoroside] | +1.88 °C | 65.26 °C | None of the above described readouts was influenced | – | more efficient generation of the immunodominant T‐cell epitope | – | only a weakly stabilizing effect over the first 12 hours | 2 fold
